2 compounds from patent publication EP0089860A1, “Levogyrous isomer of mequitazine, process for its preparation and pharmaceutical preparations containing it” (priority 1982, dated 1983) can be followed below.

The test system of the series is souris. Kind of series: Acute toxicity in the mouse. The format is in vivo. The following applies: comparison of composé (Ia) and Méquitazine.

Turning to `c1ccc2c(c1)Sc1ccccc1N2C[C@@H]1CN2CCC1CC2` [Composé (Ia), [(aza-1 bicyclo(2,2,2)octyl-3 (S))méthyl]-10 10H-phénothiazine], the “toxicité aiguë” value is listed as “sensiblement identiques”. In the case of `c1ccc2c(c1)Sc1ccccc1N2CC1CN2CCC1CC2` (racemic) [Méquitazine racémique, [(aza-1 bicyclo(2,2,2)octyl-3)méthyl]-10 10H-phénothiazine] it was “sensiblement identiques”.
